Results taken from patent US11918582B2 (RAPT Therapeutics, Inc., priority 2021, dated 2024).
Where a name gives a salt, the structure may show the parent alone.

Target: T1, human HPK1 (MAP4K1) (Homo sapiens, UniProt Q92918)
T1 construct: Recombinant human HPK1 kinase domain was obtained from ThermoFisher (Cat. #PV6357) and SignalChem (Cat. #M23-11G); purchased ThermoFisher; SignalChem PV6357; M23-11G
T1 sequence (Q92918 17-274 limits assumed): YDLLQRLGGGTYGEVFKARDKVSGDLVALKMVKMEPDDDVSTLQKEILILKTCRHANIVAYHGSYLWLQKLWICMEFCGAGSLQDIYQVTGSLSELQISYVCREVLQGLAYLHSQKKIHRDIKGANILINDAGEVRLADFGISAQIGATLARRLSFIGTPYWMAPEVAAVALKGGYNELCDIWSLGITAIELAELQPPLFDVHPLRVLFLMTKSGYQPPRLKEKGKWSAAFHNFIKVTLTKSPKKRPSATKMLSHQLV
Assay: Biochemical assay for activity against HPK1 (ADP-Glo, MBP substrate)
Conditions: recombinant human HPK1 kinase domain, 1 nM enzyme, ADP-Glo luminescence
Description: These compounds are made by the synthetic methods described earlier herein. Example 227 Biochemical Assay for Testing Compounds for Activity against HPK1
The enzymatic activity of human HPK1 (MAP4K1) was monitored in a biochemical assay in the presence or absence of compounds, using a peptide substrate (myelin basic protein, MBP), with an ADP-Glo assay kit (Promega, Cat. #V9103). An increase in phosphorylation of the peptide by HPK1 was indicative of its kinase activity.
Recombinant human HPK1 kinase domain was obtained from ThermoFisher (Cat. #PV6357) and SignalChem (Cat. #M23-11G). A 1 nM HPK1 kinase enzyme solution was prepared from the HPK1 stock received from the commercial supplier using an assay buffer containing 50 mM HEPES (4-(2-hydroxyethyl)-1-piperazineethanesulfonic acid) pH 7.5 (Fisher Scientific, Cat. #H1035), 150 mM NaCl (Fisher Scientific, Cat. #50843067), 3 mM TCEP-HCl (Tris(2-carboxyethyl)phosphine hydrochloride; Fisher Scientific, Cat. #PIPG82080), 10 mM MgCl2 (Fisher Scientific, Cat. #AM9530G), 0.005% Tween-20 (Fisher Scientific, Cat. #BP337500) and 0.01% BSA (bovine serum albumin; ThermoFisher, Cat. #15260037), in ultra-pure water. The final concentration of the assay buffer was 770 nM. A 5 mM stock solution of the peptide substrate was prepared using […] MBP (Myelin Basic Protein, Active Motif, Cat. #31314), 10 mM ATP (adenosine 5′-triphosphate; Sigma-Aldrich, Cat. #GE27-2056-01) and of assay buffer.
Test compounds were dissolved in DMSO (dimethyl sulfoxide) at 10 mM and then serial dilutions were prepared using a ViaFlow assist multichannel dispenser (Integra ViaFlo). 20 nL of test compounds at various concentrations were dispensed into a 1536-well assay plate (Corning Cat. #7247) using an Echo Nanoliter dispenser (Labcyte ECHO 550). […] of a 1 nM solution of HPK1 kinase enzyme diluted in assay buffer was added to the compound-containing plate using a Mantis Microliter dispenser (Formulatrix Mantis), covered with a lid, and incubated for 15 minutes at room temperature. 50 nL of a 5 mM stock solution of the peptide substrate (MBP) were added using the Echo Nanoliter dispenser. The plate was covered with a lid, centrifugated at 500 rpm for 1 minute and incubated for 2 hours at room temperature. […] of ADP-Glo reagent A was added using the Mantis Microliter dispenser, centrifugated at 500 rpm for 30 seconds and incubated for 40 minutes at room temperature. […] of ADP-Glo reagent B was added using the Mantis Microliter dispenser, centrifugated at 500 rpm for 30 seconds and incubated for 30 minutes at room temperature. Peptide phosphorylation was measured by luminescence on an Envision plate reader (PerkinElmer).
The HPK1 biochemical IC50 activity levels of the compounds of Examples 1-225 were tested using this assay and are shown in Table 2.

SMILES | IC50 [nM]
COc1cc2c(cc1Nc1ncc3cnn(C[C@@H]4C[C@H](F)CN4C(C)=O)c3n1)CN(CCO)CC2 [Example 222, 1-((2S,4S)-4-fluoro-2-((6-((2-(2-hydroxyethyl)-6-methoxy-1,2,3,4-tetrahydroisoquinolin-7-yl)amino)-1H-pyrazolo[3,4-d]pyrimidin-1-yl)methyl)pyrrolidin-1-yl)ethan-1-one] | < 100
COc1cc2c(cc1Nc1ncc3cnn([C@H]4CC[C@H](O)CC4)c3n1)CNCC2 [Example 152, trans-4-(6-((6-methoxy-1,2,3,4-tetrahydroisoquinolin-7-yl)amino)-1H-pyrazolo[3,4-d]pyrimidin-1-yl)cyclohexan-1-ol] | < 100
COc1cc2c(cc1Nc1ncc3cnn(C[C@@H]4CCCN4C(C)=O)c3n1)[C@H](C)N(C)CC2 [Example 185, 1-((S)-2-((6-(((S)-6-methoxy-1,2-dimethyl-1,2,3,4-tetrahydroisoquinolin-7-yl)amino)-1H-pyrazolo[3,4-d]pyrimidin-1-yl)methyl)pyrrolidin-1-yl)ethan-1-one hydrochloride] | < 100
COC(=O)N[C@@H](C)Cn1ncc2cnc(Nc3cc4c(cc3OC)CCN(C)C4)nc21 [Example 95, methyl N-[(1S)-2-[6-[(6-methoxy-2-methyl-3,4-dihydro-1H-isoquinolin-7-yl)amino]pyrazolo[3,4-d]pyrimidin-1-yl]-1-methyl-ethyl]carbamate] | < 100
COc1cc2c(cc1Nc1ncc3cnn([C@H]4CC[C@@H](C(=O)N(C)C)CC4)c3n1)CN(C)CC2 [Example 54, (1s,4s)-4-(6-((6-methoxy-2-methyl-1,2,3,4-tetrahydroisoquinolin-7-yl)amino)-1H-pyrazolo[3,4-d]pyrimidin-1-yl)-N,N-dimethylcyclohexane-1-carboxamide] | < 100
COc1cc2c(cc1Nc1ncc3cnn(C[C@@H]4CCCCN4C(C)=O)c3n1)CN(C)CC2 [Example 134, (S)-1-(2-((6-((6-methoxy-2-methyl-1,2,3,4-tetrahydroisoquinolin-7-yl)amino)-1H-pyrazolo[3,4-d]pyrimidin-1-yl)methyl)piperidin-1-yl)ethan-1-one] | < 100
COc1cc2c(cc1Nc1ncc3cnn(C[C@@H]4C[C@@H](C)CN4C(C)=O)c3n1)CN(C)CC2 [Example 138, 1-((2S,4R)-2-((6-((6-methoxy-2-methyl-1,2,3,4-tetrahydroisoquinolin-7-yl)amino)-1H-pyrazolo[3,4-d]pyrimidin-1-yl)methyl)-4-methylpyrrolidin-1-yl)ethan-1-one] | < 100
COc1cc2c(cc1Nc1ncc3cnn(C4CCCN(S(C)(=O)=O)C4)c3n1)CN(C)CC2 (stereo not drawn) [Example 108, 6-methoxy-2-methyl-N-(1-(1-(methylsulfonyl)piperidin-3-yl)-1H-pyrazolo[3,4-d]pyrimidin-6-yl)-1,2,3,4-tetrahydroisoquinolin-7-amine] | < 100
COc1cc2c(cc1Nc1ncc3cnn(CC4CCCOC4)c3n1)CN(C)CC2 (racemic) [Example 200, (S)-6-methoxy-2-methyl-N-(1-((tetrahydro-2H-pyran-3-yl)methyl)-1H-pyrazolo[3,4-d]pyrimidin-6-yl)-1,2,3,4-tetrahydroisoquinolin-7-amine and (R)-6-methoxy-2-methyl-N-(1-((tetrahydro-2H-pyran-3-yl)methyl)-1H-pyrazolo[3,4-d]pyrimidin-6-yl)-1,2,3,4-tetrahydroisoquinolin-7-amine racemic mixture] | < 100
CN1CCc2ccc(Nc3ncc4cnn([C@H]5CCOC5)c4n3)cc2C1 [Example 19, (S)-2-methyl-N-(1-(tetrahydrofuran-3-yl)-1H-pyrazolo[3,4-d]pyrimidin-6-yl)-1,2,3,4-tetrahydroisoquinolin-7-amine] | < 100
COc1cc2c(cc1Nc1ncc3cnn(CC4CC(CO)C4)c3n1)CN(C)CC2 (stereo not drawn) [Example 61, (3-((6-((6-methoxy-2-methyl-1,2,3,4-tetrahydroisoquinolin-7-yl)amino)-1H-pyrazolo[3,4-d]pyrimidin-1-yl)methyl)cyclobutyl)methanol] | < 100
COc1cc2c(cc1Nc1ncc3cnn(C[C@@H]4C[C@H](O)CN4C(C)=O)c3n1)CN(C)CC2 [Example 221, 1-((2S,4S)-4-hydroxy-2-((6-((6-methoxy-2-methyl-1,2,3,4-tetrahydroisoquinolin-7-yl)amino)-1H-pyrazolo[3,4-d]pyrimidin-1-yl)methyl)pyrrolidin-1-yl)ethan-1-one] | < 100
COc1cc2c(cc1Nc1ncc3cnn(C[C@]4(C)CCCN4C(C)=O)c3n1)CN(C)CC2 [Example 135, (S)-1-(2-((6-((6-methoxy-2-methyl-1,2,3,4-tetrahydroisoquinolin-7-yl)amino)-1H-pyrazolo[3,4-d]pyrimidin-1-yl)methyl)-2-methylpyrrolidin-1-yl)ethan-1-one] | < 100
COc1cc2c(cc1Nc1ncc3cnn([C@H]4CCC[C@H](C(N)=O)C4)c3n1)CN(C)CC2 (stereo in doubt) [Example 40, (1S,3S)-3-(6-((6-methoxy-2-methyl-1,2,3,4-tetrahydroisoquinolin-7-yl)amino)-1H-pyrazolo[3,4-d]pyrimidin-1-yl)cyclohexane-1-carboxamide] | < 100
CCOC(=O)Cn1ncc2cnc(Nc3ccc4c(c3)CN(C)CC4)nc21 [Example 9, Ethyl 2-[6-[(2-methyl-3,4-dihydro-1H-isoquinolin-7-yl)amino]pyrazolo[3,4-d]pyrimidin-1-yl]acetate] | < 100
COc1cc2c(cc1Nc1ncc3cnn(CCN(C)C(C)=O)c3n1)CN(C)CC2 [Example 91, N-[2-[6-[(6-methoxy-2-methyl-3,4-dihydro-1H-isoquinolin-7-yl)amino]pyrazolo[3,4-d]pyrimidin-1-yl]ethyl]-N-methyl-acetamide] | 100 to 250
COC(=O)N[C@H]1CC[C@H](n2ncc3cnc(Nc4cc5c(cc4OC)CCN(C)C5)nc32)CC1 [Example 80, trans-methyl N-[4-[6-[(6-methoxy-2-methyl-3,4-dihydro-1H-isoquinolin-7-yl)amino]pyrazolo[3,4-d]pyrimidin-1-yl]cyclohexyl]carbamate] | < 100
COc1cc2c(cc1Nc1ncc3cnn([C@@H]4C[C@@H]5C[C@H]4N(C(C)=O)C5)c3n1)CN(C)CC2 (relative stereo) [Example 193, rel-1-((1R,4S,6R)-6-(6-((6-methoxy-2-methyl-1,2,3,4-tetrahydroisoquinolin-7-yl)amino)-1H-pyrazolo[3,4-d]pyrimidin-1-yl]-2-azabicyclo[2.2.1]heptan-2-yl)ethan-1-one] | < 100
CN1CCc2ccc(Nc3ncc4cnn(C[C@@H]5CCC[C@H]5C(=O)O)c4n3)cc2C1 (racemic) [Example 161, Rac-trans-2-[[6-[(2-methyl-3,4-dihydro-1H-isoquinolin-7-yl)amino]pyrazolo[3,4-d]pyrimidin-1-yl]methyl]cyclopentanecarboxylic Acid] | < 100
COc1cc2c(cc1Nc1ncc3cnn(C[C@@H]4CC[C@H](O)CN4C(C)=O)c3n1)CN(C)CC2 [Example 224, 1-((2S,5S)-5-hydroxy-2-((6-((6-methoxy-2-methyl-1,2,3,4-tetrahydroisoquinolin-7-yl)amino)-1H-pyrazolo[3,4-d]pyrimidin-1-yl)methyl)piperidin-1-yl)ethan-1-one] | < 100
COc1cc2c(cc1Nc1ncc3cnn(C4CCN(C(=O)C(F)(F)F)CC4)c3n1)CN(C)CC2 [Example 107, 2,2,2-trifluoro-1-(4-(6-((6-methoxy-2-methyl-1,2,3,4-tetrahydroisoquinolin-7-yl)amino)-1H-pyrazolo[3,4-d]pyrimidin-1-yl)piperidin-1-yl)ethan-1-one trifluroacetate] | 100 to 250
